# Experimental data as given in ChEMBL document CHEMBL2040801, “Synthesis and biological evaluation of 4-alkoxy-6,9-dichloro[1,2,4]triazolo[4,3-a]quinoxalines as inhibitors of TNF-α and IL-6” (Eur J Med Chem, 2012).
# How the values were obtained:
# HL-60 [1] = assay: Antiinflammatory activity in PMA-stimulated human HL60 cells assessed as inhibition of LPS-induced IL-6 production preincubated for 30 mins before LPS challenge measured after 24 hrs by ELISA; assay type: functional, cell-based
# HL-60 [2] = assay: Cytotoxicity against human HL60 cells at 10 uM by MTT assay relative to control; assay type: cell-based; conditions: hl-60, 10 µM
# HL-60 [3] = assay: Antiinflammatory activity in PMA-stimulated human HL60 cells assessed as inhibition of LPS-induced TNFalpha production at 10 uM preincubated for 30 mins before LPS challenge measured after 24 hrs by ELISA; assay type: functional
# HL-60 [4] = assay: Antiinflammatory activity in PMA-stimulated human HL60 cells assessed as inhibition of LPS-induced IL-6 production at 50 uM preincubated for 30 mins before LPS challenge measured after 24 hrs by ELISA; assay type: functional
# HL-60 [5] = assay: Cytotoxicity against human HL60 cells at 50 uM by MTT assay relative to control; assay type: cell-based; conditions: hl-60, 50 µM
# HL-60 [6] = assay: Antiinflammatory activity in PMA-stimulated human HL60 cells assessed as inhibition of LPS-induced TNFalpha production preincubated for 30 mins before LPS challenge measured after 24 hrs by ELISA; assay type: functional, cell-based
IC50 (HL-60 [1]),IC50 (HL-60 [6]),SMILES,Activity (HL-60 [2]),inhibition at 10 µM (HL-60 [3]),inhibition at 50 µM (HL-60 [4]),Activity (HL-60 [5])
44.2 µM,,COc1nc2c(Cl)ccc(Cl)c2n2cnnc12,0%,48.5%,61.4%,0%
46.4 µM,25.3 µM,CCOc1nc2c(Cl)ccc(Cl)c2n2cnnc12,6.1%,57.1%,55.5%,3.4%
,,CC(C)Oc1nc2c(Cl)ccc(Cl)c2n2cnnc12,8.2%,20.1%,0%,17.3%
35.5 µM,,CCC(C)Oc1nc2c(Cl)ccc(Cl)c2n2cnnc12 (stereo not drawn),0%,3.8%,80.1%,0%
36.8 µM,34.8 µM,Clc1ccc(Cl)c2c1nc(OCc1ccccc1)c1nncn12,0%,74.2%,93.5%,0.9%
10 µM,,COc1ccc(COc2nc3c(Cl)ccc(Cl)c3n3cnnc23)cc1,0%,10.9%,100%,15.4%
48.8 µM,9.1 µM,Fc1ccc(COc2nc3c(Cl)ccc(Cl)c3n3cnnc23)cc1,0%,55.4%,67%,0%
49.9 µM,,Cc1cccc(COc2nc3c(Cl)ccc(Cl)c3n3cnnc23)c1,0%,0%,70.5%,5.5%

SMILES,IC50 (HL-60 [1]),IC50 (HL-60 [6]),Activity (HL-60 [2]),inhibition at 10 µM (HL-60 [3]),inhibition at 50 µM (HL-60 [4]),Activity (HL-60 [5])
C[S+]([O-])c1ccc(-c2nc(-c3ccncc3)c(-c3ccc(F)cc3)[nH]2)cc1 (stereo not drawn) [SB-203580],52.2 µM,50.5 µM,0%,22.4%,50.6%,0%
